Results on 4 compounds are retold here after patent publication US20250144067A1, “PERSONALIZED STARVATION THERAPY FOR CANCER” (Faeth Therapeutics, Inc., priority 2021, published 2025).

The subject of test [1] is NCI-H292 lung cancer cells. Briefly: FDA drug screening, complete media vs cholesterol-free media with simvastatin (TABLE 2). The settings on record: for Cholesterol-free media + simvastatin (0.04 μM) / Complete Media: NCI-H292 cells. Type of test: cell-based, human.
Test [2] relates to NCI-H292 lung cancer cells. Kind of test: FDA drug screening, complete media vs cholesterol-free media without statin (TABLE 1). The test is classed as cell-based, human. As to conditions: for Cholesterol-free / Complete: NCI-H292 cells; for Cholesterol-free: cholesterol-free media without statin; for Complete: complete media.
The mark [3] stands for this setting: complete vs cholesterol-free media, greater than 0 enhanced anti-cancer activity, about 0 neutral, below 0 antagonists.

For Capreomycin (sulfate), the “Cholesterol-free media + simvastatin (0.04 μM)” value in test [1] (cholesterol-free media with simvastatin 0.04 μM, […]) is 0.9008. In test [1] (complete media, […]), the “Complete Media” value was 0.9756. For the same compound, the Difference in test [1] (complete media minus cholesterol-free media + simvastatin, […]) is listed as 0.07; in test [2] (complete vs cholesterol-free media, […]), −0.36. In test [2], the Cholesterol-free was determined as 1.728. In addition, in test [2], the Complete came out at 1.371.

On to `C[C@H](CCC(=O)O)[C@H]1CC[C@H]2[C@@H]3C[C@H](O)[C@@H]4C[C@H](O)CC[C@]4(C)[C@H]3CC[C@]12C` [Hyodeoxycholic acid], for which the “Cholesterol-free media + simvastatin (0.04 μM)” value in test [1] (FDA drug library screen, cholesterol-free media with simvastatin 0.04 μM) was 0.7549. Also, in test [1] (FDA drug library screen, complete media), the “Complete Media” value is 0.9966. The Difference in test [1] (complete media minus cholesterol-free media + simvastatin, >0 enhanced anti-cancer activity, about 0 neutral, <0 antagonist) is reported as 0.24. In test [2], this compound showed a Cholesterol-free of 1.462 and a Complete of 1.016. Besides, in test [2] (setting [3]), the Difference is on record as −0.45.

`CCCCC(=O)O[C@H]1CC[C@H]2[C@@H]3CCc4cc(O)ccc4[C@H]3CC[C@]12C` [Estradiol valerianate]: in test [1] (cholesterol-free media with simvastatin 0.04 μM, FDA drug library screen (TABLE 2)), the “Cholesterol-free media + simvastatin (0.04 μM)” value was determined as 0.9732. Besides, the “Complete Media” value in test [1] (complete media, FDA drug library screen (TABLE 2)) was found to be 0.9423. In addition, the Difference in test [1] (complete media minus cholesterol-free media + simvastatin (0.04 μM), >0 enhanced anti-cancer activity, about 0 neutral, <0 antagonist) is −0.03. In test [2], this compound had a Cholesterol-free of 1.221 and a Complete of 0.8253. Moreover, the Difference in test [2] (setting [3]) was −0.40.

For the compound `CO/N=C(\C(=O)N[C@@H]1C(=O)N2C(C(=O)O)=CCS[C@H]12)c1csc(N)n1` [Ceftizoxime], in test [1] (drug in cholesterol-free media with simvastatin 0.04 μM), the “Cholesterol-free media + simvastatin (0.04 μM)” value was determined as 1.55. Besides, in test [1] (drug in complete media), the “Complete Media” value was determined as 1.371. The Difference in test [1] (complete media vs cholesterol-free media + simvastatin (0.04 μM), >0 enhanced anti-cancer activity, about 0 neutral, <0 antagonist) was −0.18; in test [2] (Complete minus Cholesterol-free, >0 enhanced anti-cancer activity, about 0 neutral, <0 antagonist), 0.03. The compound further showed a Cholesterol-free in test [2] (FDA drug library screen) of 1.031. Also, the Complete in test [2] (FDA drug library screen) was 1.057.
